Here are results for one molecule from ChEMBL document CHEMBL5523766 (J Med Chem, 2024).

Series [1] deals with Granta-519. The experiment in a line: Induction of apoptosis in human Granta-519 cells assessed as viable cells at 2000 nM incubated for 48 hrs by Annexin-V-FITC/propidium iodide staining based flow cytometry (reference value: 92.7 %). It is filed as functional. As to conditions: read-out: Activity.
Series [2] has as its system Granta-519. The experiment in a line: Antiproliferative activity against human Granta-519 cells assessed as inhibition of cell growth incubated for 72 hrs by MTS assay. It is filed as functional, cell-based. As to conditions: Granta-519, 72 h.
Another series concerns A2780. The experiment in a line: Antiproliferative activity against human A2780 cells assessed as inhibition of cell growth incubated for 72 hrs by MTS assay. It is filed as functional, cell-based. As to conditions: A2780, 72 h.
In another series the test system is OCI-Ly10. The experiment in a line: Antiproliferative activity against human OCI-Ly10 cells assessed as inhibition of cell growth incubated for 72 hrs by MTS assay. Format: functional, cell-based. As to conditions: OCI-Ly10, 72 h.
For the next series, the system named is LoVo. The experiment in a line: Antiproliferative activity against human LoVo cells assessed as inhibition of cell growth incubated for 72 hrs by MTS assay. It is filed as functional, cell-based.
The test system of another series is HCT-116. In words: Antiproliferative activity against human HCT-116 cells assessed as inhibition of cell growth incubated for 72 hrs by MTS assay. It is filed as functional, cell-based. As to conditions: HCT-116, 72 h.
For another series, the system named is NCI-H446. The experiment in a line: Antiproliferative activity against human NCI-H446 cells assessed as inhibition of cell growth incubated for 72 hrs by MTS assay. As to conditions: NCI-H446, 72 h. Format: functional, cell-based.
The next series concerns HT-29. In words: Antiproliferative activity against human HT-29 cells assessed as inhibition of cell growth incubated for 72 hrs by MTS assay. It is filed as functional, cell-based. The conditions noted are these: HT-29, 72 h.
The subject of the next series is SUD4. The experiment in a line: Antiproliferative activity against human SU-DHL-4 cells assessed as inhibition of cell growth incubated for 72 hrs by MTS assay. Format: functional, cell-based. As to conditions: SU-DHL-4, 72 h.
A further series has as its system DLD-1. In words: Antiproliferative activity against human DLD-1 cells assessed as inhibition of cell growth incubated for 72 hrs by MTS assay. Format: functional, cell-based. As to conditions: DLD-1, 72 h.
A further series relates to CAPAN-1. The experiment in a line: Antiproliferative activity against human CAPAN-1 cells assessed as inhibition of cell growth incubated for 72 hrs by MTS assay. Format: functional, cell-based. The conditions noted are these: CAPAN-1, 72 h.
Another series concerns PC-3. The experiment in a line: Antiproliferative activity against human PC-3 cells assessed as inhibition of cell growth incubated for 72 hrs by MTS assay. It is filed as functional, cell-based. The conditions noted are these: PC-3, 72 h.
A short description of series [3]: Tmax in BALB/c mouse at 75 mg/kg,po measured upto 24 hrs by LC-MS/MS analysis. Format: ADME, organism-based. As to conditions: in vivo.
Series [4] is described as follows: Cmax in BALB/c mouse at 75 mg/kg,po measured upto 24 hrs by LC-MS/MS analysis. The conditions noted are these: in vivo. It is filed as ADME, organism-based.
Series [5] in a line: AUCinfinity in BALB/c mouse at 75 mg/kg,po measured upto 24 hrs by LC-MS/MS analysis. Format: ADME, organism-based. As to conditions: in vivo.
Series [6] is described as follows: Half life in BALB/c mouse at 75 mg/kg,po measured upto 24 hrs by LC-MS/MS analysis. It is filed as ADME, organism-based. As to conditions: in vivo.
The nature of series [7]: Brain to plasma ratio in ICR mouse at 50 mg/kg,po measured upto 24 hrs by LC-MS/MS analysis. Format: ADME, organism-based.
Series [8] concerns Granta-519. The experiment in a line: Induction of cell cycle arrest in human Granta-519 cells assessed as accumulation of cells at G1 phase at 2000 nM incubated for 24 hrs by propidium iodide staining based flow cytometry (reference value: 45.83 %). Format: functional.
Series [9] relates to Granta-519. The experiment in a line: Induction of cell cycle arrest in human Granta-519 cells assessed as accumulation of cells at S phase at 2000 nM incubated for 24 hrs by propidium iodide staining based flow cytometry (reference value: 44.81 %). Format: functional.
For series [10], the system named is Granta-519. In words: Induction of apoptosis in human Granta-519 cells assessed as early apoptotic cells at 2000 nM incubated for 48 hrs by Annexin-V-FITC/propidium iodide staining based flow cytometry (reference value: 3.75 %). It is filed as functional.
For series [11], the system named is Granta-519. In words: Induction of apoptosis in human Granta-519 cells assessed as late apoptotic cells at 2000 nM incubated for 48 hrs by Annexin-V-FITC/propidium iodide staining based flow cytometry (reference value: 3.07 %). Format: functional.
In series [12] the test system is Granta-519. In words: Induction of apoptosis in human Granta-519 cells assessed as necrotic cells at 2000 nM incubated for 48 hrs by Annexin-V-FITC/propidium iodide staining based flow cytometry (reference value: 0.429 %). Format: functional.

On to `C[C@@H]1COCCN1c1cc(C2([S@](C)(=N)=O)CC2)nc(-c2cc[nH]c3nccc2-3)n1` [CERALASERTIB], for which the viability at 2 µM in the series on Granta-519 [1] was found to be 78%. In addition, the half-maximal inhibitory concentration (IC50) stood at 550 nM in the series with Granta-519 [2]; 620 nM in the series with A2780; 520 nM in the series with OCI-Ly10; 1140 nM with LoVo; 1120 nM in the series with HCT-116; 1960 nM with NCI-H446. For the same molecule, the concentration for half-maximal inhibition (IC50) turned out to be 2590 nM in the series on HT-29; 2260 nM in the series on SUD4; 5.28 µM in the series with DLD-1; 5.54 µM with CAPAN-1; 11.3 µM with PC-3. The Tmax in series [3] amounted to 15 min. In [4], the highest level (Cmax) was 12000 ng/mL. In series [5], this molecule returned an AUC(0-inf) of 41600 ng·h/mL. In series [6], this molecule showed a half-life of 116 min. Besides, the BPR in series [7] was 6.6%. The Activity in the series on Granta-519 [8] came to 30.16%; in the series on Granta-519 [9], 67.69%; with Granta-519 [10], 8.66%; with Granta-519 [11], 10.3%; in the series on Granta-519 [12], 3.07%.
